In article PMC5090206, “Fluselenamyl: A Novel Benzoselenazole Derivative for PET Detection of Amyloid Plaques (Aβ) in Alzheimer’s Disease” (Scientific Reports, 2016):

Key:
Aβ plaques [1] = target: T1, Aβ plaques (Homo sapiens, UniProt P05067); experiment: Ex vivo autoradiography of APP/PS1 Tg and WT mouse brain sections; assay type: in vivo; conditions: for target/reference count intensity ratio (mean ± SD): 30 min post injection, cortex and amygdala vs hypothalamus; for target/reference count intensity ratio: brain stem as reference region
T1 sequence (P05067 672-711 limits assumed): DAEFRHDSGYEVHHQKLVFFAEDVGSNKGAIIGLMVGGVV
Procedure: Uptake in brain and other critical organs was analyzed in terms of percent injected dose per gram of the tissue (%ID/g) SI Table 1. For in vivo imaging of Aβ plaques, the basic pharmacokinetic model in normal brains involves a high initial penetration of the agent, accompanied by facile clearance due to lack of a binding target. […] For comparison, brain uptake ratios of [^18F]-AV-45 (2 min/2 h) and [^18F]-Florbetaben (2 min/4 h) in normal mice are 4.07 (%ID/g (brain): 2 min: 7.33 ± 1.54; 2 h: 1.80 ± 0.07; 7.33/1.80; 4.07)[10] and 5.0 (%ID/g (brain): 2 min: 4.77; 4 h: 0.95; 4.77/0.95; 5.02)[46], respectively. […] For an agent to be able to serve as an Aβ-imaging agent, literature precedents indicate that brain uptake ratio (%ID/g; the earliest time–point; 2–5 min to that of the latest time point; typically for carbon-11; 30–60 min; and F-18, 2 h) of 3.5 or above could be considered as a benchmark for ability of a given agent to cross the blood-brain barrier. Additionally, the brain uptake of a given imaging agent is also a net function of several components, such as cerebral regional blood flow, BBB permeability, plasma radiotracer concentration, and free fractions of the radiotracer in plasma and in the brain. Furthermore, the lipophilicity of a given compound also reflects a critical physicochemical trait for neuroimaging radiotracers due to its direct relationship to membrane permeability, solubility in water, and entropic contribution to binding. Literature precedents indicate that lipophilic drugs readily cross the BBB, although other chemical characteristics, including the number of hydrogen bonds, molecular weight, polar surface area and molecular size are also known to be critical traits for passive transport. […] Conversely, radiotracers that are too lipophilic can also bind plasma proteins, undergo fast metabolism, while also contributing to high nonspecific binding, such as white matter. […] For ROI analysis of the PET signal in brain section autoradiograms of transgenic mouse (Fig. 7A) and its WT counterpart (Fig. 7D), we used measured count densities in cortex and amygdala target regions and compared them with that of hypothalamus as reference region with a low plaque density as determined by Aβ immunostaining (Fig. 7B). […] Since brain stem was also devoid of plaques, we also analyzed the above target regions using brain stem as a reference region, and observed target/reference value in the transgenic to be 0.89 ± 0.1 compared to 0.45 ± 0.07 in the WT mouse. […]

Aβ plaques [2] = target: T1, Aβ plaques; experiment: Histochemical staining of mouse brain hippocampus sections; set-up: species or system mice; conditions: 10 months old
Source text: Aβ imaging ligands and disease-modifying therapeutics have been investigated using APP^+/−/PS1^+/− transgenic mice models. Further, we assessed the ability of 5 to stain ex vivo brain sections (50 μm) of age-matched APP^+/−/PS1^+/− mice and their WT (BL/6) counterparts, using established procedures. As a positive control, anti-Aβ monoclonal antibody (mHJ3.4 conjugated to Alexa Fluor 568) was used[34]. […] By comparison, 5 indicated no staining in 10 months old WT mice (SI, Fig. 3) thus indicating its target specificity.
Scientific Reports Version of August 4, 2016
µm) were cut in the coronal plane on a freezing sliding microtome and stored at -20°C. 7,8 Tissue was stained as free-floating sections. Prior to staining, tissue sections were permeabilized with PBS-Tritron-X-100 (0.25%) for 30 minutes, and then blocked with 1% non-fat dry milk in PBS-Ttiton-X-100 for 60 minutes.
Hippocampus tissue sections of APP+/-/PS1+/- and age-matched control BL/6 (WT, SI Figure 3) were incubated with fluorescent molecule 5 (100 nM dissolved in 1% ethanol in PBS) for 60 minutes, and washed 3-times with PBS-Triton-X-100.9 Thereafter, tissue sections were incubated with mouse-anti-Aβ (mHJ3.4) 7 that was directly conjugated to Alexa 568 for 90 minutes and washed 3-times with PBS-Triton-X-100. […]

| Compound | target/reference count intensity ratio (mean ± SD) (Aβ plaques [1]; 24 months APP/PS1 transgenic mouse) | target/reference count intensity ratio (Aβ plaques [1]; APP/PS1 transgenic mouse) | target/reference count intensity ratio (mean ± SD) (Aβ plaques [1]; WT control mouse) | target/reference count intensity ratio (Aβ plaques [1]; WT mouse) | staining of Aβ plaques in hippocampus brain sections (Aβ plaques [2]; 100 nM, APP+/−/PS1+/− mice) | staining of brain sections (Aβ plaques [2]; WT mice) |
| --- | --- | --- | --- | --- | --- | --- |
| CN(C)c1ncc(/C=C\c2nc3cc(OCC[18F])ccc3[se]2)cn1 [[^18F]-9] | 1.88 ± 0.22 | 0.89 ± 0.1 | 0.96 ± 0.12 | 0.45 ± 0.07 | – | – |
| CN(C)c1ncc(/C=C\c2nc3cc(OCCF)ccc3[se]2)cn1 [compound 5, (Z)-5-(2-(5-(2-fluoroethoxy)benzo[d][1,3]selenazol-2-yl)vinyl)-N,N-dimethylpyrimidin-2-amine] | – | – | – | – | abundant staining of Aβ plaques | no staining |
